In publication PMC10245910 (bioRxiv, 2023):

Assays:
BesD [1] = target: T1, BesD (Streptantibioticus cattleyicolor, UniProt G8XHD5); assay: UV-Vis MLCT band; assay type: binding; conditions: Fe(II) added; co-substrate
T1 sequence (G8XHD5 1-242): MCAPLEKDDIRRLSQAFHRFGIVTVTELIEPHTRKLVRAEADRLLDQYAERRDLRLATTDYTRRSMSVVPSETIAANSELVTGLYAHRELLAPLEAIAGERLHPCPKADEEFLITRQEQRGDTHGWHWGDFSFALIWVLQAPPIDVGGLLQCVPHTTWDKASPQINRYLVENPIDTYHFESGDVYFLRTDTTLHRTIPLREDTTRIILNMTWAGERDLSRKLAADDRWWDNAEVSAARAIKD

BesD [2] = target: T1, BesD; assay: UV-Vis MLCT shift; assay type: biochemical; conditions: BesD-Fe-2OG complex with lysine; anaerobic UV-Vis
BesD [3] = target: T1, BesD; assay: UV-Vis MLCT shift; assay type: biochemical; conditions: BesD-Fe-2OG complex with lysine; anaerobic UV-Vis; remark: listed apart in the source
BesD [4] = target: T1, BesD; assay: biochemical

O=C(O)CCC(=O)C(=O)O [2-oxoglutarate]
UV-Vis MLCT band (BesD [1]): Upon the addition of Fe^II and 2OG to BesD, an MLCT band forms

[N-]=[N+]=[N-] [azide]
UV-Vis MLCT shift; UPLC-MS/MS of azidation product (BesD [2]): perturbations of the MLCT band with azide and bromide are minimal until the addition of lysine

Br [bromide]
UV-Vis MLCT shift; UPLC-MS/MS of bromination product (BesD [3]): perturbations of the MLCT band with azide and bromide are minimal until the addition of lysine

NCCCC[C@H](N)C(=O)O [lysine]
Kd (BesD [4]): 50 µM
